According to patent EP4603105A1, “PHARMACEUTICAL COMPOSITION CONTAINING CYCLIC COMPOUND HAVING SELECTIVE KRAS INHIBITORY EFFECT AGAINST HRAS AND NRAS” (CHUGAI SEIYAKU KABUSHIKI KAISHA, priority 2022, dated 2024):
*1 amine or outer side, *2 acyl side, *3 side chain or, on linkers, in order; H or OH if unused. Where a SMILES comes first, the peptide text is derived from it. Bridges are numbered along the chain shown (N, C = ends). [ ]: non-standard residue; d: D form. The star is where a group is joined. hPhe(3-Cl-4-CF3) = N[C@@H](CCc1ccc(C(F)(F)F)c(Cl)c1)C(=O)O; NPrPhe(4-CF3) = CCCN[C@@H](Cc1ccc(C(F)(F)F)cc1)C(=O)O; X49 = Cc1ccc(C[C@@H](C(=O)[*:2])N(CC2CC2)[*:1])cc1; NMeGly(cPent) = CN[C@H](C(=O)O)C1CCCC1; NMeD = CN[C@@H](CC(=O)O)C(=O)O; NMeL = CN[C@@H](CC(C)C)C(=O)O; Morpholide = C1CN(*)CCO1; NMeA = CN[C@@H](C)C(=O)O; Ac5c = NC1(C(=O)O)CCCC1; Aze = O=C(O)[C@@H]1CCN1; Sar = CNCC(=O)O

Key:
[1] = biological target: GDP-bound NRAS wild-type protein (Homo sapiens, UniProt P01111); assay: Binding to NRAS by surface plasmon resonance (SPR), KD and KD ratio to KRAS
Sequence of GDP-bound NRAS wild-type protein (P01111 whole entry): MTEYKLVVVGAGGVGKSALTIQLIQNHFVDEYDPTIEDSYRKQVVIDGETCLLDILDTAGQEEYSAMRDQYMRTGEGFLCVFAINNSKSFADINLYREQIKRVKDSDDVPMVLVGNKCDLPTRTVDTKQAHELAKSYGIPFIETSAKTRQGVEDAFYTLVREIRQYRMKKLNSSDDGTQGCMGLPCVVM
In short: (§1)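 Each cycle, GDP-bound biotin-Avi RAS was captured (~100–300 RU), compound concentrations were injected low to high for 75 s each at 100 µL/min, then the chip was regenerated. Buffer: HBS pH 7.4, 10 mM MgCl2, 10 µM GDP, 1 mM DTT, 4% DMSO; 30°C. KD from a 1:1 binding model.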

[2] = system: human lung cancer strain NCI-H441; assay type: cell-based
In short: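 Signal came from […] measured per well once the reagent was added. Beforehand, cells were cultured at 37°C and 5% carbon dioxide on a compound series serially diluted in dimethyl sulfoxide.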

HRAS wild-type protein = HRAS wild-type protein (Homo sapiens, UniProt P01112); assay: Binding to HRAS by surface plasmon resonance (SPR), KD and KD ratio to KRAS
Sequence of HRAS wild-type protein (P01112 whole entry): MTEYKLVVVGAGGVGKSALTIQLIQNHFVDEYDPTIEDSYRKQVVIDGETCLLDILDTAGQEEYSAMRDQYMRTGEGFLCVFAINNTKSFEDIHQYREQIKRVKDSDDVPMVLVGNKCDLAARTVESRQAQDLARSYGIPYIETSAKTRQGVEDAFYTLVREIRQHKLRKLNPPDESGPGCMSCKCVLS
In short: as §1

[3] = ratio of KD for GDP-bound NRAS wild-type protein to KD for KRAS
[4] = ratio of KD for HRAS wild-type protein to KD for KRAS
[5] = ratio of the KD value with respect to GDP-bound NRAS wild-type protein to the KD value with respect to KRAS
[6] = ratio of the KD value with respect to HRAS wild-type protein to the KD value with respect to KRAS

IC50 [2] [nM] | SMILES | NRAS /KRAS [1, 3] | HRAS /KRAS (HRAS wild-type protein; [4]) | NRAS /KRAS [1, 5] | HRAS /KRAS (HRAS wild-type protein; [6]) | other results
9.9 | CC[C@H](C)[C@@H]1NC(=O)[C@H](CC(C)C)N(C)C(=O)C[C@@H](C(=O)N2CCOCC2)N(C)C(=O)[C@H](C2CCCC2)N(C)C(=O)C2(CCCC2)NC(=O)[C@@H]2CCCN2C(=O)[C@H](CCc2ccc(C(F)(F)F)c(Cl)c2)NC(=O)CN(C)C(=O)[C@H](Cc2ccc(C)cc2)N(CC2CC2)C(=O)CN(C)C(=O)CN(C)C1=O [PP0064] ([NMeL]I[Sar][Sar][X49][Sar][hPhe(3-Cl-4-CF3)]P[Ac5c][NMeGly(cPent)][NMeD]-Morpholide; lactam N-11) | C (A compound having a KD ratio of 0.1 or more and less than 3 is denoted as C) | C (A compound having a KD ratio of 0.1 or more and less than 3 is denoted as C) | – | – | –
4.4 | CCCN1C(=O)[C@@H]2CCN2C(=O)[C@H](C)N(C)C(=O)[C@H]([C@@H](C)CC)NC(=O)[C@H](CC(C)C)N(C)C(=O)C[C@@H](C(=O)N(C)C)NC(=O)[C@H](C2CCCC2)N(C)C(=O)C2(CCCC2)NC(=O)[C@@H]2CCCN2C(=O)[C@H](CCc2ccc(C(F)(F)F)c(Cl)c2)NC(=O)CN(C)C(=O)[C@@H]1Cc1ccc(C(F)(F)F)cc1 [PP0379] ([NMeL]I[NMeA][Aze][NPrPhe(4-CF3)][Sar][hPhe(3-Cl-4-CF3)]P[Ac5c][NMeGly(cPent)]D-NMe2; lactam N-11) | C (A compound having a KD ratio of 0.1 or more and less than 3 is denoted as C) | B (a compound having 3 or more and less than 10 is denoted as B) | – | – | –
3.1 | CCC[C@H]1C(=O)N[C@@H]([C@@H](C)CC)C(=O)N(C)CC(=O)N(C)[C@H]2C/C=C\CCN(C2=O)[C@@H](Cc2ccc(C(F)(F)F)cc2)C(=O)N(C)CC(=O)N[C@@H](CCc2ccc(C(F)(F)F)c(Cl)c2)C(=O)N2C[C@H](OCC)C[C@H]2C(=O)NC2(CC(C)(C)C2)C(=O)N(C)[C@@H](C2CCCC2)C(=O)N(C)[C@H](C(=O)N(C)C)CC(=O)N1C [PP1748] | – | – | – | – | NRAS /KRAS ([1]; ratio of KD value for GDP-bound NRAS wild-type protein to KD value for KRAS (SPR)): A (a compound having 10 or more and less than 20 is denoted as A); HRAS /KRAS (HRAS wild-type protein; ratio of KD value for HRAS wild-type protein to KD value for KRAS (SPR)): B (a compound having 3 or more and less than 10 is denoted as B)
110 | CC[C@H](C)[C@@H]1NC(=O)[C@H](CC(C)C)N(C)C(=O)C[C@@H](C(=O)N2CCOCC2)N(C)C(=O)[C@H](C2CCCC2)N(C)C(=O)C2(CCCC2)NC(=O)[C@@H]2CCCN2C(=O)[C@H](CCc2ccc(C(F)(F)F)c(Cl)c2)NC(=O)CN(C)C(=O)[C@H](Cc2ccc(OC)cc2)N2CCCCC[C@@H](C2=O)N(C)C(=O)CN(C)C1=O [PP0614] | – | – | B (a compound having 3 or more and less than 10 is denoted as B) | B (a compound having 3 or more and less than 10 is denoted as B) | –
42.7 | CCO[C@@H]1C[C@H]2C(=O)NC3(CCC3)C(=O)N(C)[C@@H](C3CCCC3)C(=O)N(C)[C@H](C(=O)N(C)CCOC)CC(=O)N(C)[C@@H](CC(C)C)C(=O)N[C@@H]([C@@H](C)CC)C(=O)N(C)CC(=O)N(C)[C@H]3C/C=C\CCN(C3=O)[C@@H](Cc3ccc(C(F)(F)F)cc3)C(=O)N(C)CC(=O)N[C@@H](CCc3ccc4sccc4c3)C(=O)N2C1 [PP1325] | – | – | – | – | NRAS /KRAS ([1]; ratio of KD with respect to GDP-bound NRAS wild-type protein to KD with respect to KRAS): A (a compound having 10 or more and less than 20 is denoted as A); HRAS /KRAS (HRAS wild-type protein; ratio of KD with respect to HRAS wild-type protein to KD with respect to KRAS): A (a compound having 10 or more and less than 20 is denoted as A)
17.7 | CCCN(C)C(=O)[C@@H]1CC(=O)N(C)[C@@H](C(C)C)C(=O)N[C@@H]([C@@H](C)CC)C(=O)N(C)CC(=O)N(C)[C@H]2C/C=C\CCN(C2=O)[C@@H](Cc2ccc(C(F)(F)F)cc2)C(=O)N(C)CC(=O)N[C@@H](CCc2cc(F)c(C(F)(F)F)c(F)c2)C(=O)N2C[C@H](OCC)C[C@H]2C(=O)NC2(CCC2)C(=O)N(C)[C@@H](C2CCCC2)C(=O)N1C [PP1992] | – | – | AA (a compound having 20 or more is denoted as AA) | B (a compound having 3 or more and less than 10 is denoted as B) | –
